Results as given in BigSolDB 2.1.

Nc1cccc2c1CN(C1CCC(=O)NC1=O)C2=O (stereo not given)
solubility (mole fraction)
Details	273.15 K	278.15 K	283.15 K	288.15 K	293.15 K	298.15 K	303.15 K	308.15 K	313.15 K	318.15 K
in acetonitrile	0.000444	0.000458	0.000476	0.000496	0.000516	0.000536	0.000558	0.000579	0.000601	0.000623
in ethyl acetate	8e-05	9.2e-05	0.000105	0.00012	0.000136	0.000152	0.000168	0.000186	0.000206	0.000226
in isopropanol	2.5e-05	3.2e-05	4.1e-05	5.2e-05	6.6e-05	8e-05	9.5e-05	0.000114	0.000136	0.00016
in methanol	0.00019	0.000204	0.00022	0.000237	0.000256	0.000276	0.000301	0.000326	0.000351	0.000383
